From the NIST ThermoML archive (doi:10.1021/je700260f)
± gives the expanded uncertainty stated by the source.

Conditions: 303.15 K, Liquid, Vibrating tube method

FC(C(F)(F)F)C(F)(F)F [1,1,1,2,3,3,3-heptafluoropropane]
Conditions | mass density [kg/m3]
15975 kPa | 1462 ± 1.6
16006 kPa | 1462.4 ± 1.6
16038 kPa | 1462.4 ± 1.6
16079 kPa | 1462.6 ± 1.6
16111 kPa | 1462.8 ± 1.6
16152 kPa | 1462.9 ± 1.6
16184 kPa | 1463 ± 1.6
16220 kPa | 1463.2 ± 1.6
16252 kPa | 1463.4 ± 1.6
16288 kPa | 1463.6 ± 1.6
16325 kPa | 1463.8 ± 1.6
16349 kPa | 1463.9 ± 1.6
16386 kPa | 1464 ± 1.6
16414 kPa | 1464.1 ± 1.6
16443 kPa | 1464.3 ± 1.6
16485 kPa | 1464.4 ± 1.6
16513 kPa | 1464.6 ± 1.6
16550 kPa | 1464.7 ± 1.6
16577 kPa | 1464.8 ± 1.6
16623 kPa | 1465.1 ± 1.6
16650 kPa | 1465.1 ± 1.6
16678 kPa | 1465.2 ± 1.6
16706 kPa | 1465.4 ± 1.6
16742 kPa | 1465.5 ± 1.6
16775 kPa | 1465.7 ± 1.6
16802 kPa | 1465.8 ± 1.6
16832 kPa | 1466 ± 1.6
16862 kPa | 1466 ± 1.6
16887 kPa | 1466.2 ± 1.6
16920 kPa | 1466.4 ± 1.6
16953 kPa | 1466.4 ± 1.6
16978 kPa | 1466.6 ± 1.6
17021 kPa | 1466.7 ± 1.6
17046 kPa | 1466.9 ± 1.6
17084 kPa | 1467 ± 1.6
17113 kPa | 1467.2 ± 1.6
17142 kPa | 1467.4 ± 1.6
17167 kPa | 1467.5 ± 1.6
17196 kPa | 1467.5 ± 1.6
17235 kPa | 1467.8 ± 1.6
17260 kPa | 1467.9 ± 1.6
17289 kPa | 1468 ± 1.6
17322 kPa | 1468.1 ± 1.6
17360 kPa | 1468.3 ± 1.6
17393 kPa | 1468.3 ± 1.6
17423 kPa | 1468.6 ± 1.6
17451 kPa | 1468.7 ± 1.6
17484 kPa | 1468.8 ± 1.6
17509 kPa | 1468.9 ± 1.6
17544 kPa | 1469.1 ± 1.6
17577 kPa | 1469.3 ± 1.6
17603 kPa | 1469.3 ± 1.6
17633 kPa | 1469.4 ± 1.6
17662 kPa | 1469.6 ± 1.6
17718 kPa | 1469.9 ± 1.6
17752 kPa | 1470 ± 1.6
17778 kPa | 1470 ± 1.6
17808 kPa | 1470.1 ± 1.6
17837 kPa | 1470.3 ± 1.6
17867 kPa | 1470.6 ± 1.6
17892 kPa | 1470.5 ± 1.6
17928 kPa | 1470.7 ± 1.6
17958 kPa | 1471 ± 1.6
17996 kPa | 1471 ± 1.6
18026 kPa | 1471.1 ± 1.6
18056 kPa | 1471.2 ± 1.6
18091 kPa | 1471.3 ± 1.6
18125 kPa | 1471.6 ± 1.6
18151 kPa | 1471.7 ± 1.6
18185 kPa | 1471.7 ± 1.6
18211 kPa | 1471.9 ± 1.6
18238 kPa | 1472.2 ± 1.6
18277 kPa | 1472.1 ± 1.6
18303 kPa | 1472.4 ± 1.6
18333 kPa | 1472.5 ± 1.6
18359 kPa | 1472.6 ± 1.6
18389 kPa | 1472.6 ± 1.6
18419 kPa | 1472.9 ± 1.6
18449 kPa | 1473 ± 1.6
18480 kPa | 1472.9 ± 1.6
18511 kPa | 1473.3 ± 1.6
18545 kPa | 1473.3 ± 1.6
18580 kPa | 1473.5 ± 1.6
18615 kPa | 1473.7 ± 1.6
18646 kPa | 1473.8 ± 1.6
18677 kPa | 1473.8 ± 1.6
18707 kPa | 1474.1 ± 1.6
18737 kPa | 1474.2 ± 1.6
18777 kPa | 1474.3 ± 1.6
18803 kPa | 1474.4 ± 1.6
18835 kPa | 1474.5 ± 1.6
18861 kPa | 1474.7 ± 1.6
18888 kPa | 1474.9 ± 1.6
18913 kPa | 1475 ± 1.6
18954 kPa | 1475.1 ± 1.6
18980 kPa | 1475.2 ± 1.6
19017 kPa | 1475.4 ± 1.6
19044 kPa | 1475.5 ± 1.6
19075 kPa | 1475.6 ± 1.6
19101 kPa | 1475.6 ± 1.6
19144 kPa | 1475.8 ± 1.6
19166 kPa | 1476 ± 1.6
